One data set deals with WI-38. In words: Cytotoxicity against human WI-38 cells assessed as reduction in cell viability at 10 to 100 uM measured after 24 hrs by MTT assay. The class given is toxicity, cell-based. The note with it: wi-38, 24 h, dose 10-100 µM.
In the next data set the test system is A549. As to the kind of experiment: Antiproliferative activity against human A549 cells assessed as inhibition of cell growth measured after 24 hrs by MTT assay. Conditions: A549, 24 h. The format is functional, cell-based.
In the next data set the target is Tubulin (Homo sapiens) (UniProt P68371+Q9H4B7+P0DPH7+P68366+Q13509+Q71U36+P04350+Q3ZCM7+P07437+P68363+Q9BQE3+Q6PEY2+Q13885+Q9BVA1+Q9BUF5). In words: Inhibition of tubulin polymerization in human MCF7 cells assessed as fold increase in tubulin inhibition incubated for 18 to 24 hrs by ELISA method. The format is cell-based. Conditions: time 18-24 hrs.
A further data set concerns Erythrocyte. In words: Hemolytic activity in Albino rat RBC at 150 uM incubated for 15 mins by spectrophotometric analysis. The class given is toxicity, cell-based. Conditions: 0.25 h.
A further data set concerns the target Tubulin. As to the kind of experiment: Inhibition of tubulin polymerization in human MCF7 cells incubated for 18 to 24 hrs by ELISA method. The class given is cell-based.
The test system of a further data set is MCF7. As to the kind of experiment: Antiproliferative activity against human MCF7 cells assessed as inhibition of cell growth measured after 24 hrs by MTT assay. The class given is functional, cell-based. The note with it: MCF7, 24 h.

The record followed here is ChEMBL document CHEMBL5316360, “Fatty Acid Conjugated Chalcones as Tubulin Polymerization Inhibitors: Design, Synthesis, QSAR, and Apoptotic and Antiproliferative Activity” (J Nat Prod, 2023).

`CCCCCCCCCC(=O)Nc1ccc(C(=O)/C=C/c2ccccc2)cc1`: the Activity entry in the data set on WI-38 is recorded as “Non-Toxic”. The IC50 in the data set with A549 is 650 nM.
For `CCCCCCCCCCCCCC(=O)Nc1ccc(C(=O)/C=C/c2ccccc2)cc1`, the Activity entry in the data set with WI-38 is “Non-Toxic”.
As to `CCCCCCCCCC(=O)Nc1ccc(C(=O)/C=C/c2ccc(OC)cc2)cc1`, the fold change (FC) on Tubulin (Homo sapiens) was determined as 2.
In the case of `CCCCCCCCCCCCCCCC(=O)Nc1ccc(C(=O)/C=C/c2ccccc2)cc1`, the Activity entry with WI-38 is recorded as “Non-Toxic”.
Regarding `CCCCCCCCCCCCCCCC(=O)Nc1ccc(C(=O)/C=C/c2ccc(Cl)cc2)cc1`, in the data set with Erythrocyte, the Activity result is “Non-Toxic”.
Turning to `CCCCCCCC(=O)Nc1ccc(C(=O)/C=C/c2ccccc2)cc1`, the Activity entry in the data set on WI-38 is reported as “Non-Toxic”. For the same molecule, the IC50 against Tubulin was determined as 1500 nM; in the data set with MCF7, 2100 nM.
As for `CCCCCCCCCCCCCCCCCC(=O)Nc1ccc(C(=O)/C=C/c2ccccc2)cc1`, the Activity result in the data set on WI-38 was “Non-Toxic”. This molecule also showed an IC50 against Tubulin of 800 nM.
With `CCCCCCCCCCCCCCCC(=O)Nc1ccc(C(=O)/C=C/c2ccc(C)cc2)cc1`, the Activity result in the data set with Erythrocyte is “Non-Toxic”.
On the same count and under the same terms, under `CCCCCCCCCCCCCCCC(=O)Nc1ccc(C(=O)/C=C/c2ccc(OC)cc2)cc1` stands “Non-Toxic”.
In the case of `CCCCCCCCCC(=O)Nc1ccc(C(=O)/C=C/c2ccc(Cl)cc2)cc1`, the Activity result in the data set on WI-38 is “Non-Toxic”. Moreover, the half-inhibitory concentration (IC50) came to 3200 nM in the data set with A549 and 2900 nM with MCF7. Moreover, at Tubulin (Homo sapiens), the fold change (FC) was found to be 2.
On to `CCCCCCCCCC(=O)Nc1ccc(C(=O)/C=C/c2ccc(C)cc2)cc1`, for which the Activity entry in the data set with WI-38 is listed as “Non-Toxic”. Further, the IC50 in the data set on A549 amounted to 2100 nM; in the data set on MCF7 it was 2600 nM. On Tubulin (Homo sapiens), the fold change (FC) is 2.
